We go through 15 molecules from patent US20140155384A1, “COMPOUNDS AND METHODS OF TREATING DIABETES” (Medivation Technologies, Inc., priority 2011, published 2014).

In assay [1] the target is T1, rat adrenergic α1B receptor (Rattus norvegicus, UniProt P15823).
T1 construct: rat adrenergic α1B receptor obtained from Wistar Rat liver; from tissue; host or cells: Wistar rat liver
T1 sequence (P15823 1-515): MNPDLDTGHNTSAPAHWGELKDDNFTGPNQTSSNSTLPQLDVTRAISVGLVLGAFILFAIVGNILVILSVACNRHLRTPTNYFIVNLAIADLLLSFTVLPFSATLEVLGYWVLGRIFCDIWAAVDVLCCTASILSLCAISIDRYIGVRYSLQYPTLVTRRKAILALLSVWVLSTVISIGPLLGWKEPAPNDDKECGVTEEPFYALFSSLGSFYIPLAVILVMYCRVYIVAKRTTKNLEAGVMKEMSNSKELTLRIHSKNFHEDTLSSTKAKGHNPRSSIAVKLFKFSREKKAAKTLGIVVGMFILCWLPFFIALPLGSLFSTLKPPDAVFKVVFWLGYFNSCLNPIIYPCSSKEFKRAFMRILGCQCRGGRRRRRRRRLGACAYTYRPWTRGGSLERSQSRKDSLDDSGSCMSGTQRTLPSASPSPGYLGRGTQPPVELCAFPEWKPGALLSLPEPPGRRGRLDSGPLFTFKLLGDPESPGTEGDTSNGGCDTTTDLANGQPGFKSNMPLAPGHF
As to the kind of experiment: Radioligand binding, adrenergic α1B receptor ([3H]Prazosin). The settings on record: 0.1 μM compound, Wistar rat liver, read-out: Percentage inhibition of ligand binding, Adrenergic α1B. Summed up:
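Wistar rat liver α1B receptor preparation incubated with 0.25 nM [3H]prazosin and compound for 60 min at 25° C in 50 mM Tris-HCl pH 7.4, 0.5 mM EDTA; nonspecific binding defined with 10 μM phentolamine.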

The target of assay [2] is T2, human recombinant adrenergic α2B receptor (Homo sapiens, UniProt P18089).
T2 construct: expressed in transfected cells; host or cells: CHO-K1
T2 sequence (P18089 1-450): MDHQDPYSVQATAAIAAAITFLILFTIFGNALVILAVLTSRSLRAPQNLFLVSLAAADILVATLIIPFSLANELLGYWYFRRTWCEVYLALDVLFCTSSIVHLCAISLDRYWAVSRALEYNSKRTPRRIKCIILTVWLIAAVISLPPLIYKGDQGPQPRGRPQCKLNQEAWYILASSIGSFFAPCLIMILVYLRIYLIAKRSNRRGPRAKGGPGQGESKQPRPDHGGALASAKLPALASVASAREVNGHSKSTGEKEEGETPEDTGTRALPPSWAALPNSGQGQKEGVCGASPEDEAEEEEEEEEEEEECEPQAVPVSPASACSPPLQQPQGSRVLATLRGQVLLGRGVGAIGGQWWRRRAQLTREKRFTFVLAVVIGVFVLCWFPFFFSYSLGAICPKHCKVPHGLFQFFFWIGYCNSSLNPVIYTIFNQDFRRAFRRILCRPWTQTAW
Put plainly: Radioligand binding, adrenergic α2B receptor ([3H]Rauwolscine). The settings on record: 0.1 μM compound, CHO-K1 cells, read-out: Percentage inhibition of ligand binding, Adrenergic α2B. Summed up: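 Percent inhibition of specific [3H]Rauwolscine (2.5 nM) binding, compounds at ≤1 μM, 1% DMSO vehicle, 10 μM prazosin defining nonspecific. Receptor: human α2B expressed in CHO-K1 cells, 60 min incubation at 25 °C in Tris-HCl pH 7.4 buffer (MgCl2, EDTA, BSA); filtered, washed, counted.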

Assay [3] addresses T3, human recombinant adrenergic α2A receptor (Homo sapiens, UniProt P08913).
T3 construct: expressed in transfected cells; host or cells: insect Sf9 cells
T3 sequence (P08913 1-465): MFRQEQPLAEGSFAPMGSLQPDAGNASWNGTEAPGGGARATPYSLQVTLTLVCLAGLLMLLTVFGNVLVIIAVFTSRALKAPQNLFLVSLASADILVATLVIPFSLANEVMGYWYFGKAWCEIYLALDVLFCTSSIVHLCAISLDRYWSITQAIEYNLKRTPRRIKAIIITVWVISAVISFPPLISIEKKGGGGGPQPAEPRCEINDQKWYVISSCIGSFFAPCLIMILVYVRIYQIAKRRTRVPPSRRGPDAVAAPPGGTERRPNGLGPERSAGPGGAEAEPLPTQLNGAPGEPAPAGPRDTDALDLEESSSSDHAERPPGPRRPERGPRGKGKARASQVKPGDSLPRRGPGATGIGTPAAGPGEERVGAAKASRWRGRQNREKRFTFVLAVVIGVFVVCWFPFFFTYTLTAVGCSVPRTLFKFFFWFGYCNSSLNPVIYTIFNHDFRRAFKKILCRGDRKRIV
Put plainly: Radioligand binding, adrenergic α2A receptor ([3H]MK-912). The settings on record: 0.1 μM compound; Sf9 cells; 1 nM [3H]MK-912; read-out: Percentage inhibition of ligand binding, Adrenergic α2A. An outline of the steps:
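Percent inhibition of specific [3H]MK-912 (1 nM) binding measured by filtration counting, compounds tested at ≤1 μM in 1% DMSO. Receptor: human α2A from Sf9 cells; incubation 60 min, 25 °C, pH 7.4; 10 μM WB-4101 defined nonspecific binding.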

Assay [4] deals with T4, human recombinant adrenergic α1D receptor (Homo sapiens, UniProt P25100).
T4 construct: expressed in transfected cells; host or cells: HEK-293
T4 sequence (P25100 1-572): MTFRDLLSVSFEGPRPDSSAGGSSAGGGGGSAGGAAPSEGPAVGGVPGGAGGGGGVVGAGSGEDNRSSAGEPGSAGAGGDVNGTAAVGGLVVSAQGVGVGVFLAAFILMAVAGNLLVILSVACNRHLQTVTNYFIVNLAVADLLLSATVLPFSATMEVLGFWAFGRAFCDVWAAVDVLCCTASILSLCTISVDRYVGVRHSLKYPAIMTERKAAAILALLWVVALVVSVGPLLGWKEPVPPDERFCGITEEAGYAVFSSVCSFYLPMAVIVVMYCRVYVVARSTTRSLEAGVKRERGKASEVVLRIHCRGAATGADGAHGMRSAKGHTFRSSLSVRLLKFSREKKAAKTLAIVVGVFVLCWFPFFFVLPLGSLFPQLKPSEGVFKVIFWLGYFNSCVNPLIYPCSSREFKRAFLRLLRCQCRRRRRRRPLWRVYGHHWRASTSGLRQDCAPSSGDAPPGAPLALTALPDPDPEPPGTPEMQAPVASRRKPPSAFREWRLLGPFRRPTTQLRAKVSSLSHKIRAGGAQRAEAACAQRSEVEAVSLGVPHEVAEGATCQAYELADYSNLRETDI
Put plainly: Radioligand binding, adrenergic α1D receptor ([3H]Prazosin). The settings on record: 0.1 μM compound; HEK-293 cells; 0.6 nM [3H]Prazosin; read-out: Percentage inhibition of ligand binding, Adrenergic α1D. The method, then:
Compounds were incubated with 0.6 nM [3H]Prazosin for 60 min at 25° C. Non-specific binding was estimated in the presence of 10 μM phentolamine. Receptor proteins were filtered and washed, the filters were then counted to determine [3H]Prazosin specifically bound. Compounds were screened at 1 μM or lower, using 1% DMSO as vehicle. Biochemical assay results are presented as the percent inhibition of specific binding in Table 2.

As for `Cc1ccc2c(c1)c1c(n2-c2cccc(-c3ccc(F)cc3)c2)CCN(C)C1` [Compound No. 61, 5-(4′-fluorophenyl-3-yl)-2,8-dimethyl-2,3,4,5-tetrahydro-1H-pyrido[4,3-b]indole], the inhibition (usually the relative decrease from the control value, in per cent) at 0.1 µM was determined as 11% in assay [1], 7% in assay [2], 23% in assay [3] and 5% in assay [4].

Take `CNC(=O)c1ccc(-c2cccc(-n3c4c(c5cc(C)ccc53)CN(C)CC4)c2)cn1` [Compound No. 75, 5-(3-(2,8-dimethyl-3,4-dihydro-1H-pyrido[4,3-b]indol-5(2H)-yl)phenyl)-N-methylpicolinamide]: the inhibition at 0.1 µM in assay [1] was found to be 20%; in assay [2] it was 16%; in assay [3], 21%; in assay [4] it was 15%.

Take `Cc1csc(-c2cccc(-n3c4c(c5cc(C)ccc53)CN(C)CC4)c2)c1` [Compound No. 63, 2,8-dimethyl-5-(3-(4-methylthiophen-2-yl)phenyl)-2,3,4,5-tetrahydro-1H-pyrido[4,3-b]indole]: the inhibition at 0.1 µM in assay [1] was found to be 2%; in assay [2], 11%; in assay [3], 30%; in assay [4], 5%.

With `Cc1ccc2c(c1)c1c(n2-c2cnc3ccccc3c2)CCN(C)C1` [Compound No. 88, 2,8-dimethyl-5-quinolin-3-yl-2,3,4,5-tetrahydro-1H-pyrido[4,3-b]indole], the inhibition at 0.1 µM in assay [1] came out at 36%; in assay [2], 80%; in assay [3], 15%; in assay [4] it was 20%.

Consider `Cc1ccc2c(c1)c1c(n2-c2ccc3ccncc3c2)CCN(C)C1` [Compound No. 74, 5-(isoquinolin-7-yl)-2,8-dimethyl-2,3,4,5-tetrahydro-1H-pyrido[4,3-b]indole], for which the inhibition at 0.1 µM in assay [1] came to 41%; in assay [2], 70%; in assay [3], 38%; in assay [4] it was 18%.

Consider `Cc1cc(C)c2c(c1)c1c(n2-c2cccc3ncccc23)CCN(C)C1` [Compound 47], for which the inhibition at 0.1 µM in assay [1] came out at 5%; in assay [2] it was 6%; in assay [3], 62%; in assay [4], 3%.

As to `Cc1ccc2c(c1)c1c(n2-c2ccc(-c3sccc3C)cn2)CCN(C)C1` [Compound No. 148, 2,8-dimethyl-5-(5-(3-methylthiophen-2-yl)pyridin-2-yl)-2,3,4,5-tetrahydro-1H-pyrido[4,3-b]indole], the inhibition at 0.1 µM was found to be 63% in assay [1], 90% in assay [2], 50% in assay [3] and 68% in assay [4].

Consider `CNC(=O)c1cccc(-c2cscc2-n2c3c(c4cc(C)ccc42)CN(C)CC3)c1` [Compound No. 154], for which the inhibition at 0.1 µM is 46% in assay [1], 42% in assay [2], 20% in assay [3] and 70% in assay [4].

`CNC(=O)c1ccc(-c2ccccc2-n2c3c(c4cc(C)ccc42)CN(C)CC3)cc1` [Compound No. 72, 2′-(2,8-dimethyl-3,4-dihydro-1H-pyrido[4,3-b]indol-5(2H)-yl)-N-methylbiphenyl-4-carboxamide]: the inhibition at 0.1 µM in assay [1] is 28%; in assay [2], 17%; in assay [3], 3%; in assay [4], 56%.

Regarding `Cc1ccc2c(c1)c1c(n2-c2cscc2-c2c(C)noc2C)CCN(C)C1` [Compound No. 62], the inhibition at 0.1 µM in assay [1] came out at 32%; in assay [2], 19%; in assay [3] it was 67%; in assay [4] it was 18%.

As for `Cc1ccc2c(c1)c1c(n2-c2cccc(-c3ccc(F)nc3)c2)CCN(C)C1` [Compound 44, 5-(3-(6-fluoropyridin-3-yl)phenyl)-2,8-dimethyl-2,3,4,5-tetrahydro-1H-pyrido[4,3-b]indole], the inhibition at 0.1 µM in assay [1] came out at 0%; in assay [2], 12%; in assay [3], 29%; in assay [4], 2%.

On to `Cc1ccc2c(c1)c1c(n2-c2cscc2-c2ccnn2C)CCN(C)C1` [Compound No. 150], for which the inhibition at 0.1 µM in assay [1] stood at 72%; in assay [2] it was 77%; in assay [3], 55%; in assay [4], 73%.

Turning to `Cc1ccc2c(c1)c1c(n2-c2ccccc2-c2cccc3[nH]ncc23)CCN(C)C1` [Compound No. 105, 5-(2-(1H-indazol-4-yl)phenyl)-2,8-dimethyl-2,3,4,5-tetrahydro-1H-pyrido[4,3-b]indole], the inhibition at 0.1 µM turned out to be 71% in assay [1], 84% in assay [2], 79% in assay [3] and 65% in assay [4].

Turning to `Cc1ccc2c(c1)c1c(n2-c2ccccc2-c2ccc(O)nc2)CCN(C)C1` [Compound No. 80, 5-(2-(2,8-dimethyl-3,4-dihydro-1H-pyrido[4,3-b]indol-5(2H)-yl)phenyl)pyridin-2-ol], the inhibition at 0.1 µM turned out to be 9% in assay [1], 27% in assay [2], 12% in assay [3] and 23% in assay [4].

With `Cc1ccc2c(c1)c1c(n2-c2cccs2)CCN(C)C1` [Compound 16, 2,8-dimethyl-5-thiophen-2-yl-2,3,4,5-tetrahydro-1H-pyrido[4,3-b]indole], the inhibition at 0.1 µM in assay [1] was 8%; in assay [2] it was 16%; in assay [3], -1%; in assay [4], 16%.
